# Measured values taken from patent publication US8802597B2, “Herbicidal pyrimidines” (E I du Pont de Nemours and Company, priority 2003, dated 2014).
# Read-outs that look alike come from different tables or passages of the source.
# What was measured:
# Assay in all cases: Test C pre/postemergence
# Format in all cases: in vivo
# [1] = system: morningglory (Ipomoea coccinea); settings: Ipomoea; for pest or weed control at 31 g/ha: 31 g ai/ha; for pest or weed control at 62 g/ha: 62 g ai/ha; for pest or weed control at 125 g/ha: 125 g ai/ha; for pest or weed control at 250 g/ha: 250 g ai/ha
# Procedure, shortened: (§1)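 Seeds sown and sprayed preemergence with test compound in non-phytotoxic solvent containing surfactant; postemergence sprays, same formulation, went onto plants 2 to 18 cm tall (1- to 4-leaf stage). Plants held in greenhouse 12 to 14 days, then visually rated against untreated controls on a 0–100 scale (0 no effect, 100 complete control).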
# [2] = system: common ragweed (Ambrosia elatior); settings: Ambrosia artemisiifolia; for pest or weed control at 31 g/ha: 31 g ai/ha; for pest or weed control at 62 g/ha: 62 g ai/ha; for pest or weed control at 125 g/ha: 125 g ai/ha; for pest or weed control at 250 g/ha: 250 g ai/ha
# Procedure, shortened: as §1
# [3] = system: velvetleaf (Abutilon theophrasti); settings: Abutilon theophrasti; for pest or weed control at 31 g/ha: 31 g ai/ha; for pest or weed control at 62 g/ha: 62 g ai/ha; for pest or weed control at 125 g/ha: 125 g ai/ha; for pest or weed control at 250 g/ha: 250 g ai/ha
# Procedure, shortened: as §1
# [4] = system: woolly cupgrass (Eriochloa villosa); settings: Eriochloa villosa; for pest or weed control at 31 g/ha: 31 g ai/ha; for pest or weed control at 62 g/ha: 62 g ai/ha; for pest or weed control at 125 g/ha: 125 g ai/ha; for pest or weed control at 250 g/ha: 250 g ai/ha
# Procedure, shortened: as §1
# [5] = system: Surinam grass (Brachiaria decumbens); settings: Urochloa decumbens; for pest or weed control at 125 g/ha: 125 g ai/ha; for pest or weed control at 31 g/ha: 31 g ai/ha; for pest or weed control at 62 g/ha: 62 g ai/ha; for pest or weed control at 250 g/ha: 250 g ai/ha
# Procedure, shortened: as §1
# [6] = system: goosegrass (Eleusine indica); settings: Eleusine indica; for pest or weed control at 31 g/ha: 31 g ai/ha; for pest or weed control at 62 g/ha: 62 g ai/ha
# Procedure, shortened: as §1
# [7] = post-emergence, Postemergence, scale 0 to 100 (0 no effect, 100 complete control), read-out: Morningglory plant response rating
# [8] = pre-emergence, Preemergence, scale 0 to 100, 0 no effect, 100 complete control, read-out: Plant response rating, Morningglory
# [9] = pre-emergence, Preemergence, scale 0 to 100, read-out: Plant response rating, Morningglory
# [10] = post-emergence, Postemergence, scale 0 to 100 (0 no effect, 100 complete control), read-out: Ragweed plant response rating
# [11] = pre-emergence, Preemergence, scale 0 to 100, 0 no effect, 100 complete control, read-out: Plant response rating, Ragweed
# [12] = pre-emergence, Preemergence, scale 0 to 100, read-out: Plant response rating, Ragweed
# [13] = post-emergence, Postemergence, scale 0 to 100 (0 no effect, 100 complete control), read-out: Velvetleaf plant response rating
# [14] = pre-emergence, Preemergence, scale 0 to 100, 0 no effect, 100 complete control, read-out: Plant response rating, Velvetleaf
# [15] = pre-emergence, Preemergence, scale 0 to 100, read-out: Plant response rating, Velvetleaf
# [16] = post-emergence, Postemergence, scale 0 to 100 (0 no effect, 100 complete control), read-out: Cupgrass, Woolly plant response rating
# [17] = pre-emergence, Preemergence, scale 0 to 100, 0 no effect, 100 complete control, read-out: Plant response rating, Cupgrass, Woolly
# [18] = pre-emergence, Preemergence, scale 0 to 100, read-out: Plant response rating, Cupgrass, Woolly
# [19] = post-emergence, Postemergence, scale 0 to 100 (0 no effect, 100 complete control), read-out: Surinam Grass plant response rating
# [20] = pre-emergence, Preemergence, scale 0 to 100, 0 no effect, 100 complete control, read-out: Plant response rating, Surinam Grass
# [21] = pre-emergence, Preemergence, scale 0 to 100, read-out: Plant response rating, Surinam Grass
# [22] = pre-emergence, Preemergence, scale 0 to 100, 0 no effect, 100 complete control, read-out: Plant response rating, Goosegrass
structure (smiles),measurement,setting,value
CCOC(=O)c1nc(C2CC2)nc(N)c1F [Compound 30],pest or weed control at 31 g/ha,"[1]; post-emergence, Postemergence, read-out: Plant response rating (scale of 0 to 100), Morningglory",90%
same,pest or weed control at 62 g/ha,[1]; [7],90%
same,pest or weed control at 125 g/ha,[1]; [7],95%
same,pest or weed control at 250 g/ha,"[1]; post-emergence, Postemergence, scale 0 to 100, read-out: Plant response rating, Morningglory",95%
same,pest or weed control at 31 g/ha,[1]; [8],0%
same,pest or weed control at 62 g/ha,[1]; [8],85%
same,pest or weed control at 125 g/ha,[1]; [9],90%
same,pest or weed control at 250 g/ha,[1]; [9],100%
same,pest or weed control at 31 g/ha,"[2]; post-emergence, Postemergence, read-out: Plant response rating (scale of 0 to 100), Ragweed",60%
same,pest or weed control at 62 g/ha,[2]; [10],80%
same,pest or weed control at 125 g/ha,[2]; [10],85%
same,pest or weed control at 250 g/ha,"[2]; post-emergence, Postemergence, scale 0 to 100, read-out: Plant response rating, Ragweed",90%
same,pest or weed control at 31 g/ha,[2]; [11],30%
same,pest or weed control at 62 g/ha,[2]; [11],85%
same,pest or weed control at 125 g/ha,[2]; [12],90%
same,pest or weed control at 250 g/ha,[2]; [12],100%
same,pest or weed control at 31 g/ha,"[3]; post-emergence, Postemergence, read-out: Plant response rating (scale of 0 to 100), Velvetleaf",10%
same,pest or weed control at 62 g/ha,[3]; [13],10%
same,pest or weed control at 125 g/ha,[3]; [13],60%
same,pest or weed control at 250 g/ha,"[3]; post-emergence, Postemergence, scale 0 to 100, read-out: Plant response rating, Velvetleaf",60%
same,pest or weed control at 31 g/ha,[3]; [14],0%
same,pest or weed control at 62 g/ha,[3]; [14],10%
same,pest or weed control at 125 g/ha,[3]; [15],15%
same,pest or weed control at 250 g/ha,[3]; [15],50%
same,pest or weed control at 31 g/ha,"[4]; post-emergence, Postemergence, read-out: Plant response rating (scale of 0 to 100), Cupgrass, Woolly",0%
same,pest or weed control at 62 g/ha,[4]; [16],0%
same,pest or weed control at 125 g/ha,[4]; [16],0%
same,pest or weed control at 250 g/ha,"[4]; post-emergence, Postemergence, scale 0 to 100, read-out: Plant response rating, Cupgrass, Woolly",40%
same,pest or weed control at 31 g/ha,[4]; [17],0%
same,pest or weed control at 62 g/ha,[4]; [17],5%
same,pest or weed control at 125 g/ha,[4]; [18],45%
same,pest or weed control at 250 g/ha,[4]; [18],50%
same,pest or weed control at 125 g/ha,[5]; [19],0%
same,pest or weed control at 31 g/ha,"[5]; post-emergence, Postemergence, read-out: Plant response rating (scale of 0 to 100), Surinam Grass",0%
same,pest or weed control at 62 g/ha,[5]; [19],0%
same,pest or weed control at 250 g/ha,"[5]; post-emergence, Postemergence, scale 0 to 100, read-out: Plant response rating, Surinam Grass",35%
same,pest or weed control at 31 g/ha,[5]; [20],0%
same,pest or weed control at 62 g/ha,[5]; [20],0%
same,pest or weed control at 125 g/ha,[5]; [21],0%
same,pest or weed control at 250 g/ha,[5]; [21],20%
same,pest or weed control at 31 g/ha,"[6]; post-emergence, Postemergence, read-out: Plant response rating (scale of 0 to 100), Goosegrass",0%
same,pest or weed control at 62 g/ha,"[6]; post-emergence, Postemergence, scale 0 to 100 (0 no effect, 100 complete control), read-out: Goosegrass plant response rating",0%
same,pest or weed control at 125 g/ha,"[6]; post-emergence, Postemergence, 125 g ai/ha, scale 0 to 100 (0 no effect, 100 complete control), read-out: Goosegrass plant response rating",0%
same,pest or weed control at 250 g/ha,"[6]; post-emergence, Postemergence, 250 g ai/ha, scale 0 to 100, read-out: Plant response rating, Goosegrass",0%
same,pest or weed control at 31 g/ha,[6]; [22],0%
same,pest or weed control at 62 g/ha,[6]; [22],30%
